# T1: circulating human PAM activity (Homo sapiens, UniProt P19021)
# T1 construct: Human serum or Li-Heparin plasma from self-reported healthy volunteers was used as source of human native PAM; from tissue; host or cells: Li-heparin plasma and serum of healthy human volunteers
# T1 sequence (P19021 31-973): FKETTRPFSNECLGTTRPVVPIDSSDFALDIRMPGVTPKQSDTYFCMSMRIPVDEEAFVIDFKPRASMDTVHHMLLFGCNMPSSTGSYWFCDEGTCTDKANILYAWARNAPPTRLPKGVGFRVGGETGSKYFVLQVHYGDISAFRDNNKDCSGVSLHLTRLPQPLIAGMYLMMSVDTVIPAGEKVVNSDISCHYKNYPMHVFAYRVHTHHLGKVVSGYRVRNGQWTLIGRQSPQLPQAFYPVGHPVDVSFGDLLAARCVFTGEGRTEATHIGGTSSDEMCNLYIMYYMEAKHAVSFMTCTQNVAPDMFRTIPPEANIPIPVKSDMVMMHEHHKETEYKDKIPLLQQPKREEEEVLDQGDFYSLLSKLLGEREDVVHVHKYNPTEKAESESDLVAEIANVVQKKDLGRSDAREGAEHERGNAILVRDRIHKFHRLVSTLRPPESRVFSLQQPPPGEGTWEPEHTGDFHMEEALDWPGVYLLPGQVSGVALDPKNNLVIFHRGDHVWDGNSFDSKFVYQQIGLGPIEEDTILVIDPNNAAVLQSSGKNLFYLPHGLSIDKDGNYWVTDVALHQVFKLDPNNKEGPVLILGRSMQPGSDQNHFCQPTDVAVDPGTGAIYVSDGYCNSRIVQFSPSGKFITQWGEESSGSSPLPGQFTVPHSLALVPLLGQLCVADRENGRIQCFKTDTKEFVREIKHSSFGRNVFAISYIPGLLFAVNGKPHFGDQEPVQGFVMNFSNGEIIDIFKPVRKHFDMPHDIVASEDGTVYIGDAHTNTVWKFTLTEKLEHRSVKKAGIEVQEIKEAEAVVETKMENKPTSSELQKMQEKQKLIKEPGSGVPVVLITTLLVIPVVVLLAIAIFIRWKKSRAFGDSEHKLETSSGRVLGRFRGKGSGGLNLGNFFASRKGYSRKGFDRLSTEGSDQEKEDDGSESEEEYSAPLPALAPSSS
# T2: adrenomedullin-Gly (ADM-Gly) (UniProt P35318)
# T2 sequence: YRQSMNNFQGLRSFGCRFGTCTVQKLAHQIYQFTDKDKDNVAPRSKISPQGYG
# T3: adrenomedullin-Gly (ADM-Gly), P35318
# T3 chain: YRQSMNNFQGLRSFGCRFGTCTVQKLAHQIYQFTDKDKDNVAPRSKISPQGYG
# Key:
# bio-ADM = assay: Circulating bio-ADM concentration in rats after intravenous injection of PAM, ascorbate or both; type: in vivo, Wistar rats
# [1] = molecular target: T1, circulating human PAM activity; assay: Amidating activity in healthy human volunteers after oral ascorbate uptake, measured without exogenous ascorbate; type: in vivo; details: 2000 mg oral single dose
# Procedure: FIG. 23: Amidating activity in healthy human volunteers before (0 h) and after oral ascorbate uptake measured without addition of exogenous ascorbate. AMA at t=0 h was set as 100%.
# Human serum or Li-Heparin plasma from self-reported healthy volunteers was used as source of human native PAM. Each sample (20 μl) was diluted two-fold in 100 mM Tris-HCl in duplicate. The amidation reaction was initiated by addition of 160 μl of PAM-reaction buffer (100 mM Tris-HCl, pH 7.5, 6.25 μM CuSO4, 2.5 mM L-ascorbate, 125 μg/mL catalase, 62.5 μM amastatin, 250 μM leupeptin, 36 ng/mL synthetic ADM-Gly and 375 μg/mL NT-ADM antibody). Afterwards, 100 μl of each individual reaction of duplicated samples were combined and transferred into 20 μl of 200 mM EDTA to terminate the amidation reaction and to generate t=0 minutes reaction time-point followed by incubation at 37° C. for 40 minutes. Afterwards the non-terminated reactions were stopped with 10 μl of 200 mM EDTA. To determine the PAM activity, bio-ADM as reaction product was quantified in each sample using the Sphingotest® bio-ADM immunoassay (Weber et al. 2017). The amidation assay was calibrated using a 6-point calibration curve generated with human recombinant PAM of known activity. Samples and calibrators were treated in the same manner. Relative light units (RLU t40 min-t0 min) determined via Sphingotest® bio-ADM immunoassay for each sample were fitted against the RLU (t40 min-t0 min) of the calibrator to determine the PAM activity in the samples. PAM activity is described as “adrenomedullin maturation activity” (AMA) in μg bio-ADM formed per hour and L of sample.
# Healthy volunteers (n=4) received 2000 mg of vitamin C (Dr. Scheffler, Additiva® Vitamin C) as an oral single dose. Blood sampling was performed prior to- and 1, 2 and 3 hours post administration. Basal amidating activity was determined from Li-heparin plasma and serum as described in example 3 in absence of exogenous ascorbate addition and is shown in FIG. 23.
# PAM activity = assay: Circulating PAM activity in rats after intravenous injection of PAM, ascorbate or both, measured without exogenous ascorbate; type: in vivo, Wistar rats
# [2] = molecular target: T2, adrenomedullin-Gly (ADM-Gly)
# [3] = molecular target: T3, adrenomedullin-Gly (ADM-Gly), P35318
molecule,measurement,setting,value
"O=C1O[C@H]([C@@H](O)CO)C(O)=C1O [Ascorbate, vitamin C, reference compound]",bio-ADM concentration elevated by the factor (normalized to placebo),bio-ADM; after 15 min,1.4
same,bio-ADM concentration elevated by the factor (normalized to placebo),bio-ADM; after 30 min,1.4
same,bio-ADM concentration elevated by the factor (normalized to placebo),bio-ADM; after 45 min,1.2
same,bio-ADM concentration elevated by the factor (normalized to placebo),bio-ADM; after 60 min,returned to baseline levels
same,bio-ADM concentration compared to the Placebo group,bio-ADM; after 120 minutes,not significantly different
same,PAM activity elevated by the factor compared to prior to ascorbate uptake,[1]; 1 h after uptake,1.7
same,PAM activity elevated by the factor compared to prior to ascorbate uptake,[1]; 2 h post uptake,~2
same,PAM activity elevated by the factor compared to prior to ascorbate uptake,[1]; 3 h post uptake,~2
same,PAM activity compared to placebo group,PAM activity; 120 min past injection,comparable to PAM activity in the placebo group
same,time of maximal elevation of PAM activity past injection,PAM activity; single i.v. injection,15 min
same,elevation of circulating PAM activity,"PAM activity; single i.v. injection of 500 μl (PAM 50 μg/mL, ascorbate 40 mg/mL), vs placebo",non-significant elevation
same,time PAM activity remained elevated after injection,"PAM activity; single i.v. injection, significantly elevated for PAM and the combination",60 min
native human PAM in human plasma or serum,formation of bio-ADM (Sphingotest bio-ADM immunoassay) in human Li-Heparin plasma,[2],"When ADM-Gly was added to the sample, a linear formation of bio-ADM was detected within 90 minutes"
same,formation of bio-ADM from endogenous ADM-Gly in human Li-Heparin plasma,[2],endogenous human PAM enzyme is capable of the conversion of endogenous human ADM-Gly to bioADM in a time-dependent manner
"recombinant human PAM (peptidylglycine alpha-amidating monooxygenase, amino acids 21-834, C-terminal hexa-histidine tag linked via a GS linker) (protein) SPLSVFKRFKETTRPFSNECLGTTRPVVPIDSSDFALDIRMPGVTPKQSDTYFCMSMRIPVDEEAFVIDFKPRASMDTVHHMLLFGCNMPSSTGSYWFCDEGTCTDKANILYAWARNAPPTRLPKGVGFRVGGETGSKYFVLQVHYGDISAFRDNNKDCSGVSLHLTRLPQPLIAGMYLMMSVDTVIPAGEKVVNSDISCHYKNYPMHVFAYRVHTHHLGKVVSGYRVRNGQWTLIGRQSPQLPQAFYPVGHPVDVSFGDLLAARCVFTGEGRTEATHIGGTSSDEMCNLYIMYYMEAKHAVSFMTCTQNVAPDMFRTIPPEANIPIPVKSDMVMMHEHHKETEYKDKIPLLQQPKREEEEVLDQGDFYSLLSKLLGEREDVVHVHKYNPTEKAESESDLVAEIANVVQKKDLGRSDAREGAEHERGNAILVRDRIHKFHRLVSTLRPPESRVFSLQQPPPGEGTWEPEHTGDFHMEEALDWPGVYLLPGQVSGVALDPKNNLVIFHRGDHVWDGNSFDSKFVYQQIGLGPIEEDTILVIDPNNAAVLQSSGKNLFYLPHGLSIDKDGNYWVTDVALHQVFKLDPNNKEGPVLILGRSMQPGSDQNHFCQPTDVAVDPGTGAIYVSDGYCNSRIVQFSPSGKFITQWGEESSGSSPLPGQFTVPHSLALVPLLGQLCVADRENGRIQCFKTDTKEFVREIKHSSFGRNVFAISYIPGLLFAVNGKPHFGDQEPVQGFVMNFSNGEIIDIFKPVRKHFDMPHDIVASEDGTVYIGDAHTNTVWKFTLTEKLEHRSVKKAGIEVQEIKEAEAVVGSHHHHHH",bio-ADM synthesis rate,[3],by an averaged factor of 1.8 at each time-point

# From patent US20230149516A1, “USE OF PEPTIDYLGLYCINE ALPHA-AMIDATING MONOOXYGENASE (PAM) FOR THERAPEUTIC PURPOSE” (PAM THERAGNOSITICS GMBH, priority 2020, published 2023)
